Experimental findings from US11685766B2, “14-3-3 targeting peptides for cancer treatment” (Creighton University, priority 2019, dated 2023) are described below.

In the data set the test system is normal human epidermal keratinocytes (nHEK). Description: Neutral Red Cell Viability assay in normal keratinocytes. As to conditions: FIG. 1A dashed line. The data set is classed as cell-based. The protocol:
Human skin cancer cell lines (SCC12B.2, SCC13, SRB12) were maintained in Dulbecco's modified Eagle's medium (DMEM) (Invitrogen, Carlsbad, Calif., USA) supplemented with 1% penicillin (10 000 U/ml)-streptomycin (10 000 μg/ml) (PenStrep) (Invitrogen) and 10% fetal bovine serum (Gemini Bio-Products, Sacramento, Calif., USA) at 37° C. and 5% CO2. Normal human epidermal keratinocytes (nHEK) (Thermo Scientific, Waltham, Mass., USA) isolated from neonatal foreskin were cultured in EpiLife medium (Invitrogen) supplemented with human keratinocyte growth supplement (Invitrogen) and 1% PenStrep (Invitrogen). […]
To determine the half maximal inhibitory concentration (IC50) for ES1P2 in SCC12B.2 and nHEK cells, cells were plated in a 96-well plate at a density of 6×10^3 cells/well. […] Neutral Red Cell Viability assays were performed, where absorbance was measured using a Cytation 5 multi-mode plate reader (BioTek). […]

“Also recorded” adds a separate entry of the source. Peptide text beside a SMILES is read from it.

For `NCCCC[C@H](NC(=O)[C@H](Cc1c[nH]c2ccccc12)NC(=O)[C@H](Cc1ccc(O)cc1)NC(=O)[C@@H](N)Cc1c[nH]c2ccccc12)C(N)=O` [ES1P2, Trp-Tyr-Trp-Lys-NH2] (H-WYWK-NH2), the “toxicity to normal keratinocytes” value is given as “killed SCC cells but not normal keratinocytes; also recorded: nontoxic”.
